Literature values as cited in patent publication US11081240B2, “Methods for treatment of hypertension with an angiotensin II receptor blocker pharmaceutical composition” (AstraZeneca UK Limited, priority 2018, dated 2021).

How the values were obtained:
[1] = co-administration of a potassium supplement with a single oral dose
[2] = administered with a lithium medication
[3] = treatment of hypertension; at least 5 double-blind, placebo-controlled, randomized studies

CCOc1nc2cccc(C(=O)OCc3oc(=O)oc3C)c2n1Cc1ccc(-c2ccccc2-c2noc(=O)[nH]2)cc1 [azilsartan medoxomil]
effect of a potassium supplement on the pharmacokinetics of the drug [1]: no significant effect | serum lithium concentrations / lithium toxicity on co-administration [2]: increases in the serum lithium concentrations and/or lithium toxicity have been observed | efficacy to lower blood pressure [3]: has been demonstrated
